Data as given in US5294617A, “Angiotensin II receptor blocking 2,3,6 substituted quinazolinones” (American Cyanamid Company, priority 1993, dated 1994).
“And” between values parts separate entries of the source, which are not always exact repeats. Equal values may be shown once.

Tested on: ANGIOTENSIN II (AII) VASOPRESSOR RESPONSE
Assay: AII Challenge: angiotensin II vasopressor response in conscious spontaneously hypertensive rats
Format: in vivo, Conscious Male Okamoto-Aoki SHR (rat)
Settings: for % Inhibition / Average Change: SHR n=2; for Response After AII / Response Change: individual rat, SHR
From the text: By administering a compound of this invention to a rat, and then challenging with angiotensin II, a blockage of the vasopressor response is realized.
Conscious Male Okamoto-Aoki SHR, 16-20 weeks old, weighing approximately 330 g are purchased from Charles River Labs (Wilmington, Mass.). Conscious rats are restrained in a supine position with elastic tape. The area at the base of the tail is locally anesthetized by subcutaneous infiltration with 2% procaine. The ventral caudal artery and vein are isolated, and a cannula made of polyethylene (PE) 10-20 tubing (fused together by heat) is passed into the lower abdominal aorta and vena cava, respectively. The cannula is secured, heparinized (1,000 I.U./ml), sealed and the wound is closed. The animals are placed in plastic restraining cages in an upright position. The cannula is attached to a Statham P23Db pressure transducer, and pulsatile blood pressure is recorded to 10-15 minutes with a Gould Brush recorder. (Chan et al., (Drug Development Res., 18:75-94, 1989).
Angiotensin II (human sequence, Sigma Chem. Co., St. Louis, Mo.) of 0.05 and 0.1 ug/kg i.v. is injected into all rats (predosing response). Then a test compound, vehicle or a known angiotensin II antagonist is administered i.v., i.p. or orally to each set of rats. The two doses of angiotensin II are given to each rat again at 30, 60, 90, 120, 180, 240 and 300 minutes post dosing the compound or vehicle. The vasopressor response of angiotensin II is measured for the increase in systolic blood pressure in mmHg. The percentage of antagonism or blockade of the vasopressor response of angiotensin II by a compound is calculated using the vasopressor response (increase in systolic blood pressure) of angiotensin II of each rat predosing the compound as 100%. A compound is considered active if at 30 mg/kg i.v. it antagonized at least 50% of the response.

[1] = 2 mg/kg i.v., AII 0.05 mcg/kg IV, 30 min post dose
[2] = 2 mg/kg i.v., AII 0.05 mcg/kg IV, 60 min post dose
[3] = 2 mg/kg i.v., AII 0.05 mcg/kg IV, 90 min post dose
[4] = 2 mg/kg i.v., AII 0.05 mcg/kg IV, 120 min post dose
[5] = 2 mg/kg i.v., AII 0.05 mcg/kg IV, 180 min post dose
[6] = 2 mg/kg i.v., AII 0.1 mcg/kg IV, 30 min post dose
[7] = 2 mg/kg i.v., AII 0.1 mcg/kg IV, 60 min post dose
[8] = 2 mg/kg i.v., AII 0.1 mcg/kg IV, 90 min post dose
[9] = 2 mg/kg i.v., AII 0.1 mcg/kg IV, 120 min post dose
[10] = 2 mg/kg i.v., AII 0.1 mcg/kg IV, 180 min post dose
[11] = 10 mg/kg i.v., AII 0.05 mcg/kg IV, 30 min post dose
[12] = 10 mg/kg i.v., AII 0.05 mcg/kg IV, 60 min post dose
[13] = 10 mg/kg i.v., AII 0.05 mcg/kg IV, 90 min post dose
[14] = 10 mg/kg i.v., AII 0.05 mcg/kg IV, 120 min post dose
[15] = 10 mg/kg i.v., AII 0.05 mcg/kg IV, 180 min post dose
[16] = 10 mg/kg i.v., AII 0.05 mcg/kg IV, 240 min post dose
[17] = 10 mg/kg i.v., AII 0.05 mcg/kg IV, 300 min post dose
[18] = 10 mg/kg i.v., AII 0.1 mcg/kg IV, 30 min post dose
[19] = 10 mg/kg i.v., AII 0.1 mcg/kg IV, 60 min post dose
[20] = 10 mg/kg i.v., AII 0.1 mcg/kg IV, 90 min post dose
[21] = 10 mg/kg i.v., AII 0.1 mcg/kg IV, 120 min post dose
[22] = 10 mg/kg i.v., AII 0.1 mcg/kg IV, 180 min post dose
[23] = 10 mg/kg i.v., AII 0.1 mcg/kg IV, 240 min post dose
[24] = 10 mg/kg i.v., AII 0.1 mcg/kg IV, 300 min post dose
[25] = 2 mg/kg i.v., AII 0.05 mcg/kg IV, 30 min post dose, 2 mg/kg
[26] = 2 mg/kg i.v., AII 0.05 mcg/kg IV, 60 min post dose, 2 mg/kg
[27] = 2 mg/kg i.v., AII 0.05 mcg/kg IV, 90 min post dose, 2 mg/kg
[28] = 2 mg/kg i.v., AII 0.05 mcg/kg IV, 180 min post dose, 2 mg/kg
[29] = 2 mg/kg i.v., AII 0.1 mcg/kg IV, 30 min post dose, 2 mg/kg
[30] = 2 mg/kg i.v., AII 0.1 mcg/kg IV, 60 min post dose, 2 mg/kg

CCCCc1nc2ccc([C@@H]3C[C@H](CO)ON3C)cc2c(=O)n1Cc1ccc(-c2ccccc2-c2nn[nH]n2)cc1 (relative stereo) [Example 15, CIS-2-butyl-6-5-(hydroxymethyl)-2-methyl-3-isoxazolidinyl]-3-[[2'-(1H-tetrazol-5[1,1'-biphenyl]-4-yl]methyl]-4(3H)-quinazolinone]
% Inhibition [1]: 43%
Average Change [1]: 26 mmHg
% Inhibition [2]: 67%
Average Change [2]: 15 mmHg
% Inhibition [3]: 67%
Average Change [3]: 15 mmHg
% Inhibition [4]: 67%
Average Change [4]: 15 mmHg
% Inhibition [5]: 43%
Average Change [5]: 26 mmHg
% Inhibition [6]: 38%
Average Change [6]: 30 mmHg
% Inhibition [7]: 45%
Average Change [7]: 26.5 mmHg
% Inhibition [8]: 48%
Average Change [8]: 25 mmHg
% Inhibition [9]: 62%
Average Change [9]: 18.5 mmHg
% Inhibition [10]: 54%
Average Change [10]: 22.5 mmHg
% Inhibition [11]: 78%
Average Change [11]: 10 mmHg
% Inhibition [12]: 99%
Average Change [12]: 0.5 mmHg
% Inhibition [13]: 89%
Average Change [13]: 5 mmHg
% Inhibition [14]: 72%
Average Change [14]: 12.5 mmHg
% Inhibition [15]: 56%
Average Change [15]: 20 mmHg
% Inhibition [16]: 67%
Average Change [16]: 15 mmHg
% Inhibition [17]: 70%
Average Change [17]: 13.5 mmHg
% Inhibition [18]: 100%
Average Change [18]: 0 mmHg
% Inhibition [19]: 80%
Average Change [19]: 9 mmHg
% Inhibition [20]: 72%
Average Change [20]: 12.5 mmHg
% Inhibition [21]: 72%
Average Change [21]: 12.5 mmHg
% Inhibition [22]: 52%
Average Change [22]: 21.5 mmHg
% Inhibition [23]: 52%
Average Change [23]: 21.5 mmHg
% Inhibition [24]: 28%
Average Change [24]: 32,5 mmHg
Response After AII [25]: 237 mmHg and 255 mmHg
Response Change [25]: 22 mmHg and 30 mmHg
Response After AII [2]: 245 mmHg
Response After AII [26]: 225 mmHg
Response Change [26]: 25 mmHg and 5 mmHg
Response After AII [27]: 230 mmHg and 235 mmHg
Response Change [27]: 20 mmHg and 10 mmHg
Response Change [4]: 15 mmHg
Response After AII (2 mg/kg i.v., AII 0.05 mcg/kg IV, 120 min post dose, 2 mg/kg): 220 mmHg and 230 mmHg
Response After AII [28]: 220 mmHg and 250 mmHg
Response Change [28]: 17 mmHg and 35 mmHg
Response After AII [29]: 245 mmHg and 250 mmHg
Response Change [29]: 25 mmHg and 35 mmHg
Response After AII [30]: 255 mmHg and 235 mmHg
Response Change [30]: 35 mmHg and 18 mmHg
